According to patent publication US6797497B1, “Biological process for the production of ortho-aminophenols from nitroaromatic compounds using mutase” (The United States of America as represented by the …, priority 2001, dated 2004):

Target: T1, nitrobenzene nitroreductase (Ectopseudomonas oleovorans, UniProt Q6DLR9)
T1 construct: The fractions containing nitrobenzene nitroreductase activity, which eluted in the linear gradient between 65 to 80 ml, were pooled; made in house; host or cells: Pseudomonas pseudoalcaligenes JS45, the native organism (not recombinant); Crude extract fractionated on Q-Sepharose Fast Flow
Test: Nitrobenzene nitroreductase activity on nitroarene substrates (NADPH oxidation)
Assay type: biochemical, Pseudomonas pseudoalcaligenes strain JS45
Conditions: partially purified enzyme; compound as substrate
Procedure: The crude extract was loaded on a 100 ml Q-Sepharose Fast Flow column (Pharmacia, XK-26) previously equilibrated with 150 mM KCl in 20 mM phosphate buffer. Proteins were eluted with a step gradient that began with 100 ml buffer containing KCl (150 mM) and then a linear gradient of 150 to 300 mM KCl at a flow rate of 2.5 ml/min.
A high performance liquid chromatograph (HPLC) equipped with a diode array detector monitoring A210 (Hewlett-Packard, Model 1040M, Wilmington Del.) was used to identify and quantitate the nitroarenes, intermediates and corresponding aminophenols. […] For the whole cell transformation experiments, the nitroarenes and products were separated on an ABZ column (Supelco, Bellefonte, Pa.) using acetonitrile/water as solvent system. Capillary gas chromatography/mass spectral (GC/MS) analyses were performed splitless on a Hewlett-Packard GC (model 5890) equipped with a mass selective detector (model 5971) and a DB-5 column (J & W Scientific, Folsom, Calif., 30 m long×0.25 mm I.D.×1.0 μm film thickness). The aminophenol derivatized with BSTFA was analyzed by GC/MS using the temperature program beginning at 100° C. and increased 10° C./min to 280° C. The n-butylboronic acid derivative was analyzed using an initial temperature of 50° C. increasing 20° C./min to 340°C.

T1 sequence (Q6DLR9 2-227): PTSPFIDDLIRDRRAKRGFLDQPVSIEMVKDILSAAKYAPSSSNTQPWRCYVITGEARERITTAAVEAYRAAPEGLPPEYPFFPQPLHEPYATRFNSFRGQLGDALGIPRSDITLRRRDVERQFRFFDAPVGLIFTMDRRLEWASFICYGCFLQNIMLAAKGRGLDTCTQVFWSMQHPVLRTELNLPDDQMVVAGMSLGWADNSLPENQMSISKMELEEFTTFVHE

O=[N+]([O-])c1ccc(Oc2ccccc2)cc1 [4-nitrobiphenyl ether]
rate of transformation by partially purified nitrobenzene nitroreductase: 8.1 μmol/min/mg protein

O=[N+]([O-])c1ccccc1 [nitrobenzene]
rate of transformation by partially purified nitrobenzene nitroreductase: 7.9 μmol/min/mg protein
